# Values of other authors, collected in publication PMC9268102, “Design, Synthesis and Biological Evaluation of 1,3,5-Triazine Derivatives Targeting hA1 and hA3 Adenosine Receptor” (Molecules, 2022).
# Where “and” joins values, the source holds several entries; their conditions need not be identical. Identical values can stand only once.
# Assays:
# hA3 AR = molecular target: T1, hA3 AR (Homo sapiens, UniProt P0DMS8); parameters: expressed in transfected cells; host or cells: Hela-A3 cell line; method as in PMID 31280999, PMID 31780082, PMID 27531666; settings: read-out: Ki at hA3AR; cited from earlier work
# T1 sequence (P0DMS8 1-318): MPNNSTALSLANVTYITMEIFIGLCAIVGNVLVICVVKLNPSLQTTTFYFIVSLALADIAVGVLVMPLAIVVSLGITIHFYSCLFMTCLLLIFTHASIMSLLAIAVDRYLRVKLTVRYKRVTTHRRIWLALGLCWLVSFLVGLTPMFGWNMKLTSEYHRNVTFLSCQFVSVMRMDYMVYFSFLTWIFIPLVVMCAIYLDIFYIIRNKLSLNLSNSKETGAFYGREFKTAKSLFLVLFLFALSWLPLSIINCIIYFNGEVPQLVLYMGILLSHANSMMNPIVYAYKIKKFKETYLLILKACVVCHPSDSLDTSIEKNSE
# hA1 AR = molecular target: T2, hA1 AR (Homo sapiens, UniProt P30542); settings: read-out: Ki at hA1AR; cited from earlier work
# T2 construct: host or cells: CHO-A1 (CHO cells expressing hA1 AR)
# T2 sequence (P30542 1-326): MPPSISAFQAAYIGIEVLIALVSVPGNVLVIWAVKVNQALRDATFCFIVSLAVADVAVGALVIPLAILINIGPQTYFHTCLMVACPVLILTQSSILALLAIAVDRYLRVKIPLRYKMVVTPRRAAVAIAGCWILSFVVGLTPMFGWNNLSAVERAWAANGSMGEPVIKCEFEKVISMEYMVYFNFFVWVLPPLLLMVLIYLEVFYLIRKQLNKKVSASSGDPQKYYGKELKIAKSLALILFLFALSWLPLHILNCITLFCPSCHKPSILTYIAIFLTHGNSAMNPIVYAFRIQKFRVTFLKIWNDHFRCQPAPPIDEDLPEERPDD
# hA2A AR = molecular target: T3, hA2A AR (Homo sapiens, UniProt P29274); settings: cited from earlier work
# T3 construct: expressed in transfected cells; host or cells: Hela-A2A cell line
# T3 sequence (P29274 whole entry): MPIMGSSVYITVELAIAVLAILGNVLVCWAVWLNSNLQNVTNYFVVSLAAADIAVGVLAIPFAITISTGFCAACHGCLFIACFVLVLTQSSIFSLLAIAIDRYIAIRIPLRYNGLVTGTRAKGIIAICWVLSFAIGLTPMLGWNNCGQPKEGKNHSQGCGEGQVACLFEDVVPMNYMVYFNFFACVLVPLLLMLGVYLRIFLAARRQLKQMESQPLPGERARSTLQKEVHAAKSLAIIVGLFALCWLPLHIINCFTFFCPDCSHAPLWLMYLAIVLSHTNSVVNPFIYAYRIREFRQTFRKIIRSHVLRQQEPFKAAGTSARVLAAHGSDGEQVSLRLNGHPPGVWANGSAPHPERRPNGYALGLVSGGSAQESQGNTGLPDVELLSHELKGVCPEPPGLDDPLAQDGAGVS
Compound,Ki (hA3 AR) [nM],Ki (hA1 AR) [nM],Selectivity hA1/hA2AAR (hA2A AR),Ki (hA2A AR; read-out: Ki at hA2AAR) [nM]
CN1CCN(c2nc(-c3cccc(O)c3)nc3[nH]cnc23)CC1 [Compound 1],6.3,6.8,,
Nc1nc(NCCc2ccc(O)cc2)nc(Nc2nnc(-c3ccc(Cl)cc3)s2)n1 [Compound 5],,520,11.66,44.6
Nc1nc(NCCc2ccc(O)cc2)nc(Nc2nc(-c3ccc(F)cc3)cs2)n1 [Compound 6],,478,319 and 318.9,
